Laboratory results from US20230271933A1, “HETEROCYCLIC IMMUNOMODULATOR” (Beijing Innocare Pharma Tech Co., Ltd., priority 2020, published 2023).

Key:
[1] = In vivo pharmacokinetic experiment in rats; conditions: male Sprague-Dawley rats, n = 3; for F: PO 5 mpk vs IV 1 mpk; for clearance / Vd / AUC(0-t) / Cmax: rat, plasma; for clearance / Vd: 1 mg/kg, IV 1 mpk; for Vd: read-out: VSS; for AUC(0-t) / Cmax: 5 mg/kg, PO 5 mpk
Method: The compound to be tested was dissolved in 5% DMA+20% Solutol+75% Saline vehicle to prepare a 0.5 mg/mL administration solution.
2 mL/kg of the administration solution was administered through the intravenous injection (IV) at a dose of 1 mg/kg to three fed male Sprague-Dawley rats, respectively. Blood samples were collected at 0.083, 0.25, 0.5, 1, 2, 4, 8 and 24 hours after administration. 10 mL/kg of the administration solution was administered by gavage (PO) at a dose of 5 mg/kg to other three fed male Sprague-Dawley rats, respectively. Blood samples were collected at 0.25, 0.5, 1, 2, 4, 8 and 24 hours after administration.
The concentration of the compound to be tested in plasma was obtained with the LC-MS/MS quantitative analysis with an API-4500 mass spectrometer, and the limit of quantitation (LOQ) for the plasma was 1 ng/mL.

TNFα = assay: Inhibition of TNFα secretion in LPS-stimulated hPBMC (ELISA); assay type: cell-based; conditions: Homo sapiens, overnight, read-out: IC50 (nM) for the inhibition of the TNFa secretion
Method: (§1) The immunomodulatory function of the compound of the present invention was evaluated by detecting its effect on the secretion amount of TNFα and IL-2 in cells from the human peripheral blood mononuclear cells (hPBMC) by the enzyme linked immunosorbent assay (ELISA) method.
(§2) The peripheral blood of healthy volunteers was collected by using EDTA anticoagulant tubes, and diluted with phosphate buffered saline (PBS) containing 2% fetal bovine serum (Gibco, Cat. No. 10099-141) in an equal volume ratio. 30 mL of the resulting diluted sample was transferred into a Sepmate-50 centrifuge tube (Stemcell, Cat. No. 86450) to which 15 mL of a density-gradient centrifugation liquid (Sigma, Cat. No. 10771) had been added in advance, and centrifuged at room temperature at 1200×g for 10 minutes. The liquid containing PBMC in the upper layer was transferred to a new 50-mL centrifuge tube, and centrifuged at room temperature at 300×g for 8 minutes. The supernatant was discarded, and the resulting PBMC was resuspended to 5×10^6/mL by using RPMI 1640 medium (Gibco, Cat. No. 72400-047). 80 μL of the resulting suspension was added to each well in a 96-well plate.
(§3) Each concentration was further diluted 50-fold with RPMI 1640 medium. 10 μL of each compound solution was added into the cells in the above 96-well plate. The 96-well plate was placed in an incubator, and the cells were cultured at 37° C. and 5% CO2 for 1 hour. 10 μL of LPS (Sigma, Cat. No. L-2880) with a concentration of 100 ng/mL was added, and the cells were continuously cultured in the incubator at 37° C. and 5% CO2 overnight. Supernatants were collected for the detection of TNFα.
(§4) TNFα and IL-2 were detected respectively according to each instruction of the ELISA kits (R&D, Cat. No. DY210 and DY202, respectively) to obtain the OD450 values for each well. The group containing 0.2% DMSO medium was used as 0% inhibition or stimulation. The XLfit software was used to plot the compound inhibition or stimulation curve and calculate the corresponding IC50 or EC50.

IL-2 = assay: Stimulation of IL-2 secretion in anti-CD3-stimulated hPBMC (ELISA); assay type: cell-based, human; conditions: Homo sapiens, anti-CD3 antibody, 72 hours
Method: as §1, §2, §3
The above-mentioned 96-well plate can also be placed in an incubator, and the cells were cultured at 37° C. and 5% CO2 for 1 hour. 10 μL of anti-CD3 antibody (Thermo Fisher, Cat. No. 14-0037-82) with a concentration of 500 ng/mL was added, and the cells were continuously cultured in the incubator at 37° C. and 5% CO2 for 72 hours. Supernatants were collected for the detection of IL-2.
as §4

| SMILES | F [1] | clearance [1] | Vd [1] | AUC(0-t) [1] | Cmax [1] | IC50 (TNFα) | EC50 (IL-2) |
| --- | --- | --- | --- | --- | --- | --- | --- |
| C[C@H](c1ccc(COc2cccc3c2CN([C@H]2CCC(=O)NC2=O)C3=O)cc1)N1CCN(c2ccc(C#N)nc2)CC1 [Compound 21, 5-(4-((R)-1-(4-(((2-((S)-2,6-dioxopiperidin-3-yl)-1-oxoisoindolin-4-yl)oxy)methyl)phenyl)ethyl)piperazin-1-yl)-2-cyanopyridine] | 18% | 14 mL/min/kg | 0.65 L/kg | 1010 ng·h/mL | 318 ng/mL | 0.5 nM | 3.8 nM |
| C[C@H](c1ccc(COc2cccc3c2CN([C@H]2CCC(=O)NC2=O)C3=O)cc1)N1CCN(c2ccc(C#N)cc2F)CC1 [Compound 6, 4-(4-((R)-1-(4-(((2-((S)-2,6-dioxopiperidin-3-yl)-1-oxoisoindolin-4-yl)oxy)methyl)phenyl)ethyl)piperazin-1-yl)-3-fluorobenzonitrile] | 14% | 1 mL/min/kg | 0.27 L/kg | 11800 ng·h/mL | 1800 ng/mL | 2.8 nM | 2.3 nM |
| C[C@H](c1ccc(COc2cccc3c2CN([C@H]2CCC(=O)NC2=O)C3=O)cc1)N1CCN(c2ccc(C#N)cn2)CC1 [Compound 16, 6-(4-((R)-1-(4-(((2-((S)-2,6-dioxopiperidin-3-yl)-1-oxoisoindolin-4-yl)oxy)methyl)phenyl)-ethyl)piperazin-1-yl)nicotinonitrile] | 27% | 5.2 mL/min/kg | 0.56 L/kg | 4280 ng·h/mL | 555 ng/mL | 1.3 nM | 5.5 nM |
| C[C@H](c1ccc(COc2cccc3c2CN([C@H]2CCC(=O)NC2=O)C3=O)cc1)N1CCN(c2ncc(C#N)cc2F)CC1 [Compound 22, 6-(4-((R)-1-(4-(((2-((S)-2,6-dioxopiperidin-3-yl)-1-oxoisoindolin-4-yl)oxy)methyl)phenyl)-ethyl)piperazin-1-yl)-5-fluoronicotinonitrile] | 30% | 2.2 mL/min/kg | 0.36 L/kg | 13000 ng·h/mL | 1440 ng/mL | 4.7 nM | 26 nM |
